In patent US20240115512A1, “PROCESS FOR PREPARING NANOFORMULATION FOR DELIVERY OF BERBAMINE” (priority 2021, published 2024):
In brackets after ≈: the same amount, converted by molar mass.

Legend:
Assay in all cases: MIC by serial dilution method
Format in all cases: cell-based
[1] = test system: Staphylococcus aureus (ATCC 29213); details: ATCC29213
Method: (§1) Berbamine was tested for a panel of bacterial strains including Pseudomonas aeruginosa (ATCC 27853), Acinetobacter baumannii (ATCC 19606), Staphylococcus aureus (ATCC 29213) and clinical isolates of Klebsiella pneumoniae, Staphylococcus epidermidis, Staphylococcus hemolyticus and Burkholderia cepacia complex using serial dilution method. Ceftazidime was used as the standard antibiotic for validating the protocol.

[2] = test system: Staphylococcus epidermidis (clinical isolate)
Method: as §1

[3] = test system: Acinetobacter baumannii (ATCC 19606); details: ATCC19606
Method: as §1

[4] = test system: Staphylococcus hemolyticus (clinical isolate)
Method: as §1

[5] = test system: Klebsiella pneumoniae (clinical isolate)
Method: as §1

With `COc1cc2c3cc1Oc1c(OC)c(OC)cc4c1[C@@H](Cc1ccc(O)c(c1)Oc1ccc(cc1)C[C@@H]3N(C)CC2)N(C)CC4` [berbamine] the MIC [1] was 256 µg/mL (≈ 421 µM), the MIC [2] was 128 µg/mL (≈ 210 µM) and the MIC [3] was 256 µg/mL (≈ 421 µM). The MIC [4] was 128 µg/mL (≈ 210 µM) and the MIC [5] was over 4100 µg/mL.
